In patent US11649430B2 (priority 2018, dated 2023):

System: R. solanacearum
Assay type: cell-based, Ralstonia solanacearum
Conditions: ΔrmyA mutant strain (more sensitive than WT); 0.4 mM; 24 hours

Compound | R. solanacearum growth (OD)
COC1=C(O)C(=O)C2=C(C1=O)[C@H]1N[C@@H](Cc3c[nH]c4ccccc34)C(=O)N1C(C(=O)N[C@@H](CC(CO)CO)C(=O)O)C2 (some centres unmarked) [Imizoquin B, imizoquin B] | decreases R. solanacearum growth modestly
COC1=C(O)C(=O)C2=C(C1=O)[C@H]1N[C@@H](Cc3c[nH]c4ccccc34)C(=O)N1C(C(=O)N[C@@H](CC(C)CO)C(=O)O)C2 (some centres unmarked) [Imizoquin A, imizoquin A] | decreases R. solanacearum growth modestly
